From PubChem BioAssay (NCI)
Values joined by “and” are separate entries in the source; they are usually repeats but may differ in a detail not shown here. Equal values may be shown once.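 Compound exposure: 48 hours, 5 concentrations, 96-well plates. GI50 is the concentration that inhibits growth by half. Definition used: TGI = concentration required for complete inhibition of growth.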

Key:
Assay in all cases: NCI-60 cell line screen, 48 h
RXF 393 renal = tested on: RXF 393 renal
HL-60(TB) leukemia = tested on: HL-60(TB) leukemia
SR leukemia = tested on: SR leukemia
SK-OV-3 ovarian = tested on: SK-OV-3 ovarian
HCT-15 colon = tested on: HCT-15 colon
HT29 colon = tested on: HT29 colon
COLO 205 colon = tested on: COLO 205 colon
OVCAR-4 ovarian = tested on: OVCAR-4 ovarian
SK-MEL-5 melanoma = tested on: SK-MEL-5 melanoma
DU-145 prostate = tested on: DU-145 prostate

Row | SMILES | TGI (RXF 393 renal) | TGI (HL-60(TB) leukemia) | TGI (SR leukemia) | TGI (SK-OV-3 ovarian) | TGI (HCT-15 colon) [µM] | TGI (HT29 colon) [µM] | TGI (COLO 205 colon) [µM] | TGI (OVCAR-4 ovarian) [µM] | TGI (SK-MEL-5 melanoma) | TGI (DU-145 prostate) [µM] | GI50 (RXF 393 renal) | GI50 (HL-60(TB) leukemia) | GI50 (SR leukemia) | GI50 (SK-OV-3 ovarian) | GI50 (HCT-15 colon) | GI50 (HT29 colon) | GI50 (COLO 205 colon) | GI50 (OVCAR-4 ovarian) | GI50 (SK-MEL-5 melanoma) | GI50 (DU-145 prostate)
1 | Cn1c2ccc3cc2c(=S)c2cc(ccc21)OCCOCCOCCOCCOCCOCCO3 | > 10 µM | > 10 µM | > 10 µM | > 10 µM | > 10 | > 10 | > 10 | > 10 | > 10 µM | > 10 | – | – | – | – | – | – | – | – | – | –
2 | Cc1nnc(NC(=O)c2nc(S(=O)(=O)Cc3ccc(F)cc3)ncc2Cl)s1 | 3.51 µM | 4.73 µM | 3.55 µM | 32 µM | 3.91 | 5.8 | 3.68 | 3.8 | 31.4 µM | 21.7 | 1.85 µM | 2.6 µM | 1.44 µM | 17.9 µM | 1.84 µM | 2.34 µM | 1.82 µM | 1.8 µM | 17 µM | 9.44 µM
3 | CC1SC(c2ccc(F)cc2)N(NC(=O)C(O)c2ccccc2)C1=O (stereo unspecified) | > 100 µM | > 100 µM | > 100 µM | – | > 100 | > 100 | – | > 100 | > 100 µM | > 100 | > 100 µM | > 100 µM | > 100 µM | – | > 100 µM | > 100 µM | – | > 100 µM | > 100 µM | > 100 µM
4 | COc1ccc(/C=N/NC(=O)c2cccc3cc[nH]c23)cc1O | > 100 µM | > 22.7 µM | > 41.2 µM | > 100 µM | > 46.1 | > 100 | > 80.7 | > 100 | > 80.7 µM | > 46.5 | 5.83 µM | 0.55 µM | 0.349 µM | 9.87 µM | 0.615 µM | 4.32 µM | 13.9 µM | 10.3 µM | 1.27 µM | 3 µM
5 | C/C(=C\CBr)CCC(Br)C(C)(C)Br (stereo unspecified) | > 100 µM | > 100 µM | > 100 µM | > 100 µM | > 100 | > 100 | > 100 | > 100 | > 100 µM | > 100 | – | – | – | – | – | – | – | – | – | –
6 | Nc1n[nH]c2cccc(C#Cc3cccc(C(=O)Nc4ccc(CN5CCOCC5)c(C(F)(F)F)c4)c3)c12 | 3.44 µM | 5 µM | > 100 µM | 17.5 µM | 9.32 | 12.2 | 6.99 | 6.88 | 3.26 µM | 13.3 | 1.53 µM | 1.17 µM | 1.97 µM | 4 µM | 2.56 µM | 1.89 µM | 1.35 µM | 2.15 µM | 1.4 µM | 3.93 µM
7 | O=C(O)c1nc2nc(Cl)c(Cl)nc2[nH]1 | > 100 µM | > 100 µM | > 100 µM | > 100 µM | > 100 | > 100 | > 100 | > 100 | > 100 µM | > 100 | – | – | – | – | – | – | – | – | – | –
8 | O=[N+]([O-])c1ccc(Cl)cc1N/N=C/c1ccnc2ccccc12 | > 100 µM | > 100 µM | > 100 µM | > 100 µM | > 100 | > 100 | > 100 | > 100 | > 100 µM | > 100 | – | – | – | – | – | – | – | – | – | –
9 | COc1cccc(C2SC(N)=Nc3c2c(C)nn3C(=O)c2ccccc2O)c1 (stereo unspecified) | > 10 µM | – | > 7.36 µM | > 10 µM | > 10 | > 10 | > 10 | > 8.45 | > 10 µM | > 10 | – | – | – | – | – | – | – | – | – | –
10 | COc1ccc(-c2cn[nH]c2-c2cc(OC)c(OC)c(OC)c2)cc1 | 25.1 µM | 0.0671 µM | 13.9 µM | 9.12 µM | 21.8 | 0.336 | 0.0482 | 46.9 | 0.226 µM | 2.67 | 0.0269 µM | 0.0249 µM | 0.0177 µM | 0.0293 µM | 0.0217 µM | 0.0258 µM | 0.0197 µM | 0.511 µM | 0.0243 µM | 0.0392 µM
11 | Nc1ccccc1SC(CC(=O)c1ccccc1)c1cccc([N+](=O)[O-])c1 (stereo unspecified) | 28.6 µM | 40.1 µM | 6.46 µM | 32 µM | 28.4 | 23 | 34.7 | 27.8 | 29 µM | 28 | 15 µM | 17.3 µM | 2.55 µM | 18.1 µM | 11.5 µM | 5.79 µM | 19.1 µM | 14.6 µM | 15.4 µM | 14.7 µM
12 | COc1cc(C2CC(C)(O)Oc3cc4c(cc32)OCO4)cc(OC)c1OC (stereo unspecified) | 0.403 µM | 0.638 µM | > 100 µM | – | > 100 | > 100 | 2.92 | > 100 | 0.494 µM | > 100 | – | – | – | – | – | – | – | – | – | –
13 | N#CC(C#N)=C/C=C(\Sc1nc2ccccc2s1)c1ccc(Cl)cc1 | 25.9 µM | – | – | > 42.2 µM | > 44.2 | > 31.7 | > 27.7 | 47.5 | 24.6 µM | 17.1 | 7.59 µM | – | 0.844 µM | 11.9 µM | 6.72 µM | 3.27 µM | 3.26 µM | 16 µM | 10.4 µM | 3.98 µM
14 | O=C1NC(=NC(CO)Cc2ccccc2)S/C1=C\c1ccc2ncccc2c1 (stereo unspecified) | > 25 µM and 10.7 µM | > 25 µM and 14.3 µM | > 22.6 µM and 5.23 µM | > 25 µM and 21.2 µM | > 25 | > 25 | > 25 | > 25 | > 25 µM and 12.3 µM | > 25 | 11.5 µM and 3.82 µM | 9.76 µM and 3.88 µM | 6.94 µM and 0.888 µM | 14.1 µM and 3.74 µM | 10.5 µM and 4.19 µM | 16.2 µM and 4.74 µM | 9.23 µM and 1.86 µM | > 21.4 µM and 4.17 µM | > 25 µM and 5.17 µM | 18.8 µM and 2.62 µM
15 | C[C@]12CCC3c4ccc(O)cc4CCC3C1CC[C@@]2(O)CNC(=O)/C=C/c1ccc(O)c(O)c1 (stereo partly specified) | 18.7 µM | 20.1 µM | 26.7 µM | 34.5 µM | 16.8 | 19.1 | 10.4 | 81.3 | 12 µM | 14.8 | 3.29 µM | 3.99 µM | 5.66 µM | 16.7 µM | 4.33 µM | 4.83 µM | 3.55 µM | 26.4 µM | 3.23 µM | 3.29 µM
